Test results: ChEMBL document CHEMBL1201862, “PubChem BioAssay data set” (2004)
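Results reflect a 48-hour exposure of cells in 96-well plates to compound at five concentrations. GI50 marks 50% less growth.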 The source made the active and inactive calls. Cut-off read from the data, not from the text of the source: active = GI50 up to about 1.1 µM and inactive = higher.

How the values were obtained:
Test in all cases: DTP human tumour cell line panel, 48 h
786-0 = system: 786-0
LOX IMVI = system: LOX IMVI
HCT-116 = system: HCT-116
CCRF-CEM = system: CCRF-CEM
MDA-MB-435 = system: MDA-MB-435
CAKI-1 = system: CAKI-1
DU-145 = system: DU-145
MDA-MB-231 = system: MDA-MB-231
NCI-H23 = system: NCI-H23
SR = system: SR
U-251 = system: U-251
PC-3 = system: PC-3
HCC 2998 = system: HCC 2998
OVCAR-4 = system: OVCAR-4
SNB-19 = system: SNB-19
HOP-62 = system: HOP-62
SF-539 = system: SF-539
Hs-578T = system: Hs-578T
RPMI-8226 = system: RPMI-8226
A498 = system: A498

Row | SMILES | GI50 (786-0) | GI50 (LOX IMVI) | GI50 (HCT-116) | GI50 (CCRF-CEM) | GI50 (MDA-MB-435) | GI50 (CAKI-1) | GI50 (DU-145) | GI50 (MDA-MB-231) | GI50 (NCI-H23) | GI50 (SR) | GI50 (U-251) | GI50 (PC-3) | GI50 (HCC 2998) | GI50 (OVCAR-4) | GI50 (SNB-19) | GI50 (HOP-62) | GI50 (SF-539) | GI50 (Hs-578T) | GI50 (RPMI-8226) | GI50 (A498)
1 | O=[N+]([O-])c1ccc(-n2nc3ccc4c(no[n+]4[O-])c3n2)cc1 | > 100 µM (inactive) | > 100 µM (inactive) | > 100 µM (inactive) | > 100 µM (inactive) | > 100 µM (inactive) | > 100 µM (inactive) | 35.4 µM (inactive) | > 100 µM (inactive) | > 100 µM (inactive) | > 100 µM (inactive) | > 100 µM (inactive) | 5.55 µM (inactive) | > 100 µM (inactive) | > 100 µM (inactive) | > 100 µM (inactive) | 35.2 µM (inactive) | > 100 µM (inactive) | > 100 µM (inactive) | – | –
2 | O=C(O)/C=C\C(=O)Nc1ccc2c(c1)C(=O)c1cc(F)ccc1-2 | > 100 µM (inactive) | > 100 µM (inactive) | > 100 µM (inactive) | > 100 µM (inactive) | > 100 µM (inactive) | > 100 µM (inactive) | > 100 µM (inactive) | > 100 µM (inactive) | > 100 µM (inactive) | > 100 µM (inactive) | 99.8 µM (inactive) | > 100 µM (inactive) | – | > 100 µM (inactive) | > 100 µM (inactive) | > 100 µM (inactive) | > 100 µM (inactive) | 54.3 µM (inactive) | > 100 µM (inactive) | > 100 µM (inactive)
3 | c1ccc2c(c1)-c1nc3ccccc3cc1C2N1CCOCC1 (stereo not given) | > 100 µM (inactive) | > 100 µM (inactive) | > 100 µM (inactive) | 28.4 µM (inactive) | > 100 µM (inactive) | > 100 µM (inactive) | > 100 µM (inactive) | > 100 µM (inactive) | > 100 µM (inactive) | > 100 µM (inactive) | > 100 µM (inactive) | > 100 µM (inactive) | – | 47.6 µM (inactive) | > 100 µM (inactive) | > 100 µM (inactive) | – | 46.6 µM (inactive) | 72.1 µM (inactive) | > 100 µM (inactive)
4 | CSC1=N/C(=C\c2ccc(C)cc2)C(=O)N1 | 45.8 µM (inactive) | 57.3 µM (inactive) | 40.6 µM (inactive) | 92.5 µM (inactive) | > 100 µM (inactive) | > 100 µM (inactive) | > 100 µM (inactive) | 92.7 µM (inactive) | 51.8 µM (inactive) | > 100 µM (inactive) | 65.3 µM (inactive) | 94.6 µM (inactive) | 66.2 µM (inactive) | > 100 µM (inactive) | 58.7 µM (inactive) | 39.5 µM (inactive) | 41.9 µM (inactive) | 32.6 µM (inactive) | > 100 µM (inactive) | –
5 | CCOC(=O)CCc1c(C)nc2c(C)c3c([nH]c4ccc(Cl)cc43)c(C)c2c1O | 6.37 µM (inactive) | 10.9 µM (inactive) | 10.9 µM (inactive) | 7.91 µM (inactive) | 9.18 µM (inactive) | 18.2 µM (inactive) | 25.5 µM (inactive) | 12.6 µM (inactive) | 19.2 µM (inactive) | 6.55 µM (inactive) | 11 µM (inactive) | 4.19 µM (inactive) | 14.1 µM (inactive) | 6.89 µM (inactive) | 9.59 µM (inactive) | 12.3 µM (inactive) | 11.2 µM (inactive) | 17.6 µM (inactive) | – | 1.8 µM (inactive)
6 | COC(=O)c1c(O)ccc2c1c1c(n2Cc2ccccc2OC)C(=O)c2ccccc2C1 | 78.9 µM (inactive) | 47.2 µM (inactive) | 27.8 µM (inactive) | 24.6 µM (inactive) | 45.3 µM (inactive) | 65.3 µM (inactive) | > 100 µM (inactive) | 44.1 µM (inactive) | 74.8 µM (inactive) | 77.3 µM (inactive) | 63.4 µM (inactive) | 24 µM (inactive) | – | 29.7 µM (inactive) | > 100 µM (inactive) | 75.5 µM (inactive) | 63.8 µM (inactive) | > 100 µM (inactive) | 22.4 µM (inactive) | > 100 µM (inactive)
7 | COc1ccc(C(=O)/C=C/c2ccc(OCCCCCCCCCCOc3ccc(/C=C/C(=O)c4ccc(OC)c(OC)c4)cc3)cc2)c(OC)c1 | > 100 µM (inactive) | – | > 100 µM (inactive) | > 100 µM (inactive) | > 100 µM (inactive) | > 100 µM (inactive) | > 100 µM (inactive) | > 100 µM (inactive) | – | > 100 µM (inactive) | > 100 µM (inactive) | > 100 µM (inactive) | > 100 µM (inactive) | > 100 µM (inactive) | > 100 µM (inactive) | > 100 µM (inactive) | > 100 µM (inactive) | 76 µM (inactive) | > 100 µM (inactive) | –
8 | CCOC(=O)c1sc(N)nc1N1CCCC1 | > 100 µM (inactive) | > 100 µM (inactive) | > 100 µM (inactive) | > 100 µM (inactive) | > 100 µM (inactive) | > 100 µM (inactive) | > 100 µM (inactive) | > 100 µM (inactive) | > 100 µM (inactive) | > 100 µM (inactive) | > 100 µM (inactive) | > 100 µM (inactive) | – | > 100 µM (inactive) | > 100 µM (inactive) | > 100 µM (inactive) | > 100 µM (inactive) | > 100 µM (inactive) | > 100 µM (inactive) | > 100 µM (inactive)
9 | O=c1oc2ccccc2cc1-c1csc(Nc2cc(Cl)cc(Cl)c2)n1 | 2.27 µM (inactive) | 2.82 µM (inactive) | 3.6 µM (inactive) | 25.2 µM (inactive) | 4.9 µM (inactive) | – | 31.2 µM (inactive) | 4.66 µM (inactive) | > 38.1 µM (inactive) | > 20 µM (inactive) | 2.39 µM (inactive) | > 100 µM (inactive) | > 100 µM (inactive) | 1.79 µM (inactive) | > 24.2 µM (inactive) | 3.85 µM (inactive) | 2.28 µM (inactive) | 12.2 µM (inactive) | > 100 µM (inactive) | 4.94 µM (inactive)
10 | O=[N+]([O-])c1ccc(/C=C(/c2ccc([N+](=O)[O-])o2)S(=O)(=O)c2ccccc2)cc1 | > 100 µM (inactive) | – | 30.9 µM (inactive) | – | 60.8 µM (inactive) | > 100 µM (inactive) | 35.5 µM (inactive) | 14.3 µM (inactive) | 59 µM (inactive) | 16.4 µM (inactive) | 73.5 µM (inactive) | > 100 µM (inactive) | – | 57 µM (inactive) | 73.5 µM (inactive) | 50.6 µM (inactive) | 33.7 µM (inactive) | 26.1 µM (inactive) | 13.7 µM (inactive) | –
11 | C#CC(C)(C)OC(=O)C(=[N+]=[N-])C(C)=O | > 10 µM (inactive) | > 10 µM (inactive) | > 10 µM (inactive) | > 10 µM (inactive) | > 10 µM (inactive) | – | > 10 µM (inactive) | > 10 µM (inactive) | > 10 µM (inactive) | > 10 µM (inactive) | > 10 µM (inactive) | > 10 µM (inactive) | > 10 µM (inactive) | – | > 10 µM (inactive) | > 10 µM (inactive) | > 10 µM (inactive) | > 10 µM (inactive) | > 10 µM (inactive) | > 10 µM (inactive)
12 | O=C1CSC(c2cccc(Oc3ccccc3)c2)N1c1cc(Cl)ccc1Cl (stereo not given) | 18.2 µM (inactive) | 20 µM (inactive) | 17.3 µM (inactive) | 17.2 µM (inactive) | 15.4 µM (inactive) | 22.5 µM (inactive) | 35.2 µM (inactive) | 20.7 µM (inactive) | 31.9 µM (inactive) | 14.9 µM (inactive) | 18.4 µM (inactive) | 22.6 µM (inactive) | 14 µM (inactive) | 17.2 µM (inactive) | 22.8 µM (inactive) | 21.9 µM (inactive) | 19.1 µM (inactive) | 29.7 µM (inactive) | – | 32.6 µM (inactive)
13 | COC(=O)OC[C@H]1O[C@@H](n2cc(C)c(=O)[nH]c2=O)CC1OC(=O)OC (stereo not given in full) | > 100 µM (inactive) | > 100 µM (inactive) | – | > 100 µM (inactive) | > 100 µM (inactive) | – | > 100 µM (inactive) | > 100 µM (inactive) | > 100 µM (inactive) | 61.7 µM (inactive) | > 100 µM (inactive) | > 100 µM (inactive) | > 100 µM (inactive) | > 100 µM (inactive) | > 100 µM (inactive) | > 100 µM (inactive) | > 100 µM (inactive) | > 100 µM (inactive) | > 100 µM (inactive) | > 100 µM (inactive)
14 | CC(C)(C)c1ccc(OC(=O)Nc2ccc(O)c(C(=O)O)c2)cc1 | > 100 µM (inactive) | > 100 µM (inactive) | > 100 µM (inactive) | > 100 µM (inactive) | > 100 µM (inactive) | > 100 µM (inactive) | > 100 µM (inactive) | > 100 µM (inactive) | > 100 µM (inactive) | > 100 µM (inactive) | > 100 µM (inactive) | > 100 µM (inactive) | – | > 100 µM (inactive) | > 100 µM (inactive) | > 100 µM (inactive) | > 100 µM (inactive) | > 100 µM (inactive) | > 100 µM (inactive) | > 100 µM (inactive)
15 | CC[C@](O)(C(=O)O)c1cc2n(c(=O)c1CO)Cc1cc3ccccc3nc1-2 | 0.00366 µM (active) | – | 0.0308 µM (active) | 0.025 µM (active) | 0.0532 µM (active) | 0.025 µM (active) | 0.0137 µM (active) | 0.665 µM (active) | 0.025 µM (active) | 0.01 µM (active) | 0.025 µM (active) | 0.131 µM (active) | 0.324 µM (active) | 0.214 µM (active) | 0.025 µM (active) | 0.0025 µM (active) | 0.0697 µM (active) | 6.05 µM (inactive) | – | 0.0398 µM (active)
